The source of these data is PubChem BioAssay AID1996.

≈ marks a conversion by molar mass, not a printed value.

For this data set the following is noted: buffer; pH 7.4; 200.0 µM.
Compound `CC(NC(=O)COC(=O)C1CC2CCCC(C1)C2=O)c1ccccc1` (centres undefined) had a solubility (kinetic) above 51.5 µg/mL.
To `Cc1ccccc1OCC(=O)OCC(=O)N1CCc2ccccc21` belongs 1.8 µg/mL (≈ 5.53 µM); to `COc1cc(SC)ccc1C(=O)OCC(=O)NC1CCCCC1`, 2.2 µg/mL (≈ 6.52 µM).
The figure for `c1ccc(Nc2nc(-c3ccccc3)nc3ccccc23)cc1` is 2.5 µg/mL (≈ 8.41 µM); for `Cc1cc2c(=O)n(C)c(SCC(=O)Nc3ccccc3)nc2s1` it is 0.4 µg/mL (≈ 1.16 µM).
To `S=C(Nc1ccc(Oc2ccccc2)cc1)N1CCOCC1` belongs 42.8 µg/mL (≈ 136 µM); to `CSc1ncccc1C(=O)OCc1c(F)cccc1Cl`, 1.1 µg/mL (≈ 3.53 µM).
Take `COc1ccc(CNc2ccc(Cl)cc2)cc1Cn1ccnc1`: the solubility (kinetic) was determined as 31.1 µg/mL (≈ 94.9 µM).
The figure for `Cc1c(/C=N/O)c2ccccn2c1C=O` is above 30.3 µg/mL.
The figure for `CN1CCN(c2nc(Cl)ncc2F)CC1` is above 34.6 µg/mL; for `O=C(COC(=O)c1cc(=O)[nH]c2ccccc12)NCc1ccccc1` it is 20.8 µg/mL (≈ 61.8 µM); for `Cc1ccc(O)c(CNc2cccc3cccnc23)c1` it is 2.9 µg/mL (≈ 11 µM).
The figure for `CCN(CC(=O)N1CCOCC1)S(=O)(=O)c1ccc(F)cc1` is 41.2 µg/mL (≈ 125 µM); for `N/C(=N\O)c1ccncc1` it is above 20.6 µg/mL; for `CCNc1nc(NC(C)CC)nc(ON=C(C)C)n1` (centres undefined) it is above 40 µg/mL.
Take `COc1cccc(C(=O)O/N=C(\N)c2ccc(C)cc2)c1`: the kinetic solubility is 10.2 µg/mL (≈ 35.9 µM).
To `Cc1ccc(CNC(=O)c2ccc(OCC(C)C)cc2)n1C` belongs 27.6 µg/mL (≈ 91.9 µM); to `Cc1noc(C)c1NC(=O)NCCN1CCN(Cc2ccccc2)CC1`, above 53.6 µg/mL; to `CCOC(=O)CSc1[nH]c2cc(OC)ccc2c1[N+](=O)[O-]`, 29.3 µg/mL (≈ 94.4 µM).
To `CC1(C)CC(=O)C=C(NCC(O)c2ccccc2)C1` (centres undefined) belongs 36.7 µg/mL (≈ 142 µM); to `CC1(C2CC2)NC(=O)N(CC(=O)Nc2ccc(SC(F)F)cc2)C1=O` (centres undefined), above 55.4 µg/mL.
To `CCn1cc(CCCC(=O)NCc2ccc(OC)cc2)c2ccccc21` belongs 10.5 µg/mL (≈ 30 µM); to `Cc1c(Cl)cccc1NC(=O)CC(Cc1ccccc1)C(=O)O` (centres undefined), above 49.8 µg/mL.
For the compound `CCNc1nc(NCC)nc(OCC(=O)O)n1`, the kinetic solubility is above 36.2 µg/mL.
The figure for `CCOC(=O)NC(=O)CSc1ccc2ccccc2n1` is 42.5 µg/mL (≈ 146 µM); for `Cc1ccccc1C(=O)Nc1ccc(S(=O)(=O)N2CCOCC2)cc1` it is above 54.1 µg/mL.
The figure for `Nc1cccc2c1C(=O)N(CCOc1ccc(F)cc1)C2=O` is 8.4 µg/mL (≈ 28 µM); for `COCC(C)N=C1SCCN1Cc1ccccc1` (centres undefined) it is 35.3 µg/mL (≈ 134 µM); for `COc1ccc(NC(=O)Nc2nc3ccccc3s2)cc1` it is below 0.2 µg/mL.
As to `Cc1sc2nc(SCC(=O)Nc3cccc(S(N)(=O)=O)c3)[nH]c(=O)c2c1C`, the solubility (kinetic) is 6 µg/mL (≈ 14.1 µM).
`O=[N+]([O-])c1ccc(N2CCN(c3ccccc3)CC2)cc1` gave a kinetic solubility below 0.2 µg/mL.
In the case of `c1ccc(CSc2cc3ccccc3[nH]2)cc1`, the solubility (kinetic) amounted to 2.8 µg/mL (≈ 11.7 µM).
The figure for `Cc1c(C(=O)NN2CCOCC2)cccc1[N+](=O)[O-]` is above 39.8 µg/mL; for `Cc1cc(C)c(Nc2ncccc2C(=O)O)c(C)c1` it is above 38.4 µg/mL; for `CCOc1cc(CNCc2ccccn2)cc(Cl)c1OCC.Cl` it is 35.5 µg/mL.
The compound `Cc1cnc([N+](=O)[O-])n1CCOC(=O)NC(=O)c1c(F)cccc1F` registered a kinetic solubility above 53.1 µg/mL.
To `c1ccc(NCc2ccncc2)cc1` belongs above 27.6 µg/mL; to `Cc1ccc(C)c(NS(=O)(=O)c2ccccc2C)c1`, 38.8 µg/mL (≈ 141 µM); to `CN1CCc2c(sc(/N=C/c3c[nH]c4ccccc34)c2C(N)=O)C1`, 10.2 µg/mL (≈ 30.1 µM).
To `Cc1cccc(Nc2nc(OCC#N)nc(N(C)C)n2)c1` belongs 2.8 µg/mL (≈ 9.85 µM); to `Nc1ccccc1SCc1ccccc1Cl`, 3.3 µg/mL (≈ 13.2 µM).
The figure for `Cc1ccc2[nH]c(CNC(=O)C3CCCCC3)cc2c1` is 19.6 µg/mL (≈ 72.5 µM); for `O=C(NCCc1nnc2ccccn12)c1cccs1` it is above 40.8 µg/mL; for `O=C(COC(=O)COc1ccc(Br)cc1)NCc1ccc2c(c1)OCO2` it is 8.4 µg/mL (≈ 19.9 µM).
The compound `Cc1ccc(Cl)cc1NC(=O)NCc1cccnc1` returned a solubility (kinetic) of 18.5 µg/mL (≈ 67.1 µM).
The figure for `COc1ccc(S(=O)(=O)N2CCN(Cc3cccnc3)CC2)cc1` is above 52.1 µg/mL.
The figure for `CCCn1c(NC(=O)c2ccc([N+](=O)[O-])o2)nc2ccccc21` is 10.4 µg/mL (≈ 33.1 µM); for `O=C(NCC1CC1)c1cc([N+](=O)[O-])cc([N+](=O)[O-])c1` it is above 39.8 µg/mL; for `CCC1(C)Cc2ccccc2-c2[nH]c(=S)[nH]c(=O)c21` (centres undefined) it is 22.1 µg/mL (≈ 81.1 µM).
On to `COc1ccc(C(=O)NCC(=O)N2CCc3ccccc3C2)cc1`, for which the kinetic solubility was above 48.7 µg/mL.
The figure for `CC1(C)Cc2nc3sc(C(N)=O)c(N)c3cc2CO1` is above 41.6 µg/mL; for `Fc1ccc(C2CC(c3ccco3)=Nc3ccccc3S2)cc1` (centres undefined) it is below 0.7 µg/mL.
To `O=C(Cc1ccccc1)NCC(=O)N1CCCC1` belongs above 36.9 µg/mL; to `CCCCc1nc2sc3c(=O)[nH]cnc3c2c2c1CCCC2`, below 0.2 µg/mL.

The term kinetic solubility denotes the concentration staying in solution when a stock, usually in DMSO, is diluted into the medium.
